Experiment [1] has as its system MLKL phosphorylation in HT29-L23 human colorectal adenocarcinoma cells. Description: MLKL Phosphorylation High-Content Assay. It counts as cell-based. The note with it: 6 h, necroptosis induced with TNFα, SMAC mimetic and Z-VAD, read-out: pMLKL (IC50). In short, it runs like this:
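HT29-L23 cells pretreated 30 min at 37 °C with compound (6.25 to 0.106 μM final), then necroptosis induced with TNFα 35 ng/mL, SMAC mimetic 700 nM and Z-VAD 140 nM for 6 h. Fixed cells immunostained for MLKL pS358 and imaged; IC50 and Ymax from 4-parameter logistic fit.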

In experiment [2] the target is His-GST-TVMV-hRIPK1(1-324) (Homo sapiens (Human), UniProt Q13546). Description: RIPK1 HTRF Binding Assay. The note with it: HTRF binding, 1 h at rt; read-out: RIPK1 (IC50). In short, it runs like this: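 HTRF probe-displacement binding: 1 nM His-GST-TVMV-hRIPK1(1-324) (baculovirus construct), 90.6 nM probe, 0.2 nM anti-GST-Tb in 20 mM HEPES, 10 mM MgCl2, 0.015% Brij-35, 4 mM DTT, 0.05 mg/mL BSA. Incubated 1 h at rt; FRET 520/495 nm ratio, inhibition relative to DMSO-only wells.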
On the technique in general: In TR-FRET formats the signal depends on donor and acceptor labels being close together.

Counter-ions that a name gives are not always drawn. Like-named read-outs stand apart in the source and are kept apart here.

Chain of His-GST-TVMV-hRIPK1(1-324) (Q13546 1-324): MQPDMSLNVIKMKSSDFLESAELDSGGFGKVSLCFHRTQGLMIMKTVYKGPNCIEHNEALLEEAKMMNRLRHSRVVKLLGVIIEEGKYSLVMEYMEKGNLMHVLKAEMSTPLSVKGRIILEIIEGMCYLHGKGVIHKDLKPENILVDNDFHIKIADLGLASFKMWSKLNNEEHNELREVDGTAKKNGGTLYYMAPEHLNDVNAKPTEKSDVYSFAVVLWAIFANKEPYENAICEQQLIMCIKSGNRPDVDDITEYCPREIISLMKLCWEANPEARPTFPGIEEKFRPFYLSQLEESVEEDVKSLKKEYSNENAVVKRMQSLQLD

For `[2H]C([2H])([2H])Oc1ncc(-c2ccc3nc(NC(C)=O)cn3n2)cc1C(=O)NCc1cc(F)cc(F)c1OC1COC1` [Example 48, N-{[3,5-difluoro-2-(oxetan-3-yloxy)phenyl]methyl}-5-{2-acetamidoimidazo[1,2-b]pyridazin-6-yl}-2-(D3)methoxypyridine-3-carboxamide], the 50% inhibitory concentration (IC50) (commonly the point on the concentration scale where inhibition reaches its midpoint) amounted to 87 nM in experiment [1] (Homo sapiens) and 10 nM in experiment [2].

With `CC(=O)Nc1cn2nc(-c3ccc(Cl)c(C(=O)N[C@H](C)c4cc(OC(F)(F)F)ccc4F)c3F)ccc2n1` [Example 388, 6-chloro-3-{2-acetamidoimidazo [1,2-b]pyridazin-6-yl}-2-fluoro-N-[(1R)-1-[2-fluoro-5-(trifluoromethoxy)phenyl]ethyl] benzamide], the IC50 in experiment [1] (Homo sapiens) was found to be 2 nM; in experiment [2] it was 7 nM.

Take `CC(=O)Nc1cn2nc(-c3cc(C(=O)NCc4cc(OC(F)(F)F)ccc4F)c(C)nc3C)ccc2n1` [Example 81, 5-{2-acetamidoimidazo[1,2-b]pyridazin-6-yl}-N-{[2-fluoro-5-(trifluoromethoxy)phenyl]methyl}-2,6-dimethylpyridine-3-carboxamide]: the values for the half-inhibitory concentration (IC50) in experiment [1] (Homo sapiens) and in experiment [2] were 2 nM and 5 nM, respectively.

For `CC(=O)Nc1cn2nc(-c3cnc(C)c(C(=O)NCc4cc(F)cc(F)c4OC4CC(C)OC(C)C4)c3)ccc2n1` (stereo not drawn) [Example 189, N-({2-[(2,6-dimethyloxan-4-yl)oxy]-3,5-difluorophenyl}methyl)-5-{2-acetamidoimidazo [1,2-b]pyridazin-6-yl}-2-methylpyridine-3-carboxamide], the half-maximal inhibitory concentration (IC50) stood at 208 nM in experiment [1] (Homo sapiens) and 91 nM in experiment [2].

With `CC(=O)Nc1cn2nc(-c3cc(C(=O)N[C@H](C)c4cc(OC(F)(F)F)ccc4F)c(Cl)cc3F)ccc2n1` [Example 392, 2-chloro-5-{2-acetamidoimidazo [1,2-b]pyridazin-6-yl}-4-fluoro-N-[(1R)-1-[2-fluoro-5-(trifluoromethoxy)phenyl]ethyl] benzamide], the IC50 stood at 72 nM in experiment [1] (Homo sapiens) and 36 nM in experiment [2].

As for `COc1ncc(-c2ccc3nc(NC(C)=O)cn3n2)cc1C(=O)NCc1cc(F)cc(F)c1OC1CCCOC1` (stereo not drawn) [Example 99, N-{[3,5-difluoro-2-(oxan-3-yloxy)phenyl]methyl}-5-{2-acetamidoimidazo[1,2-b]pyridazin-6-yl}-2-methoxypyridme-3-carboxamide], the IC50 in experiment [1] was 24 nM; in experiment [2] it was 6 nM.

Turning to `CC(=O)Nc1cn2nc(-c3cnc(C)c(C(=O)NCc4ccccc4OC(F)(F)F)c3)ccc2n1` [Example 220, 5-{2-acetamidoimidazo[1,2-b]pyridazin-6-yl}-2-methyl-N-{[2-(trifluoromethoxy)phenyl]methyl}pyridine-3-carboxamide], the half-inhibitory concentration (IC50) turned out to be 406 nM in experiment [1] (Homo sapiens) and 202 nM in experiment [2].

Regarding `CC(=O)Nc1cn2nc(-c3cnc(C)c(C(=O)NC(C)c4cc(C(F)(F)F)ccc4F)c3)ccc2n1` (stereo not drawn) [Example 204, 5-{2-acetamidoimidazo[1,2-b]pyridazin-6-yl}-N-{1-[2-fluoro-5-(trifluoromethyl)phenyl]ethyl}-2-methylpyridine-3-carboxamide], the IC50 in experiment [1] (Homo sapiens) amounted to 83 nM; in experiment [2], 122 nM.

Take `CC(=O)Nc1cn2nc(-c3cnc(C(F)(F)F)c(C(=O)NCc4cc(C(F)(F)F)ccc4F)c3)ccc2n1` [Example 30, 5-{2-acetamidoimidazo[1,2-b]pyridazin-6-yl}-N-{[2-fluoro-5-(trifluoromethyl)phenyl]methyl}-2-(trifluoromethyl)pyridine-3-carboxamide]: the IC50 in experiment [1] (Homo sapiens) came to 341 nM; in experiment [2], 199 nM.

For `[2H]C([2H])([2H])Oc1ncc(-c2ccc3nc(NC(C)=O)cn3n2)cc1C(=O)NCc1ccc(F)c(F)c1OCC1CC1` [Example 53, N-{[2-(cyclopropylmethoxy)-3,4-difluorophenyl]methyl}-5-{2-acetamidoimidazo[1,2-b]pyridazin-6-yl}-2-(D3)methoxypyridine-3-carboxamide], the half-maximal inhibitory concentration (IC50) in experiment [1] (Homo sapiens) came out at 81 nM; in experiment [2], 62 nM.

Take `CC(=O)Nc1cn2nc(-c3ccc(F)c(C(=O)NCc4cc(F)ccc4C(=O)N4CCC(F)(F)CC4)c3F)ccc2n1` [Example 381, N-{[2-(4,4-difluoropiperidine-1-carbonyl)-5-fluorophenyl]methyl}-3-{2-acetamidoimidazo [1,2-b]pyridazin-6-yl}-2,6-difluorobenzamide]: the values for the IC50 in experiment [1] (Homo sapiens) and in experiment [2] were 74 nM and 8 nM, respectively.

On to `CC(=O)Nc1cn2nc(-c3ccc(Cl)c(C(=O)NCC[C@@H](O)c4ccc(Cl)cc4)c3)ccc2n1` [Example 386, 2-chloro-N-[(3R)-3-(4-chlorophenyl)-3-hydroxypropyl]-5-{2-acetamidoimidazo [1,2-b]pyridazin-6-yl}benzamide], for which the IC50 in experiment [1] (Homo sapiens) amounted to 13 nM; in experiment [2], 5 nM.

For the compound `[2H]C([2H])(NC(=O)c1cc(-c2ccc3nc(NC(=O)CO)cn3n2)c(C)nc1C)c1cc(C(F)(F)F)ccc1F` [Example 93, N-{[2-fluoro-5-(trifluoro-methyl)phenyl](deutero)methyl}-5-[2-(2-hydroxy-acetamido)imidazo[1,2-b]pyridazin-6-yl]-2,6-dimethylpyridine-3-carboxamide], the half-inhibitory concentration (IC50) stood at 129 nM in experiment [1] (Homo sapiens) and 50 nM in experiment [2].

As to `COc1ncc(-c2ccc3nc(NC(=O)C(C)C)cn3n2)cc1C(=O)NCc1ccccc1OC(F)(F)F` [Example 263, 2-methoxy-5-[2-(2-methylpropanamido)imidazo[1,2-b]pyridazin-6-yl]-N-{[2-(trifluoromethoxy)phenyl]-methyl}pyridine-3-carboxamide], the figures for the IC50 in experiment [1] (Homo sapiens) and in experiment [2] were 38 nM and 107 nM, respectively.

`CC(=O)Nc1cn2nc(-c3cncc(C(=O)NCc4ncccc4OC4CCCC4)c3)ccc2n1` [Example 241, N-{[3-(cyclopentyloxy)pyridin-2-yl]methyl}-5-{2-acetamidoimidazo [1,2-b]pyridazin-6-yl}pyridine-3-carboxamide]: the figures for the IC50 in experiment [1] (Homo sapiens) and in experiment [2] were 277 nM and 35 nM, respectively.

Take `COc1ncc(-c2ccc3nc(NC(C)=O)cn3n2)cc1C(=O)NCc1cc(F)cc(OC(F)(F)F)c1` [Example 138, 5-{2-acetamidoimidazo[1,2-b]pyridazin-6-yl}-N-{[3-fluoro-5-(trifluoromethoxy)phenyl]methyl}-2-methoxypyridine-3-carboxamide]: the IC50 in experiment [1] (Homo sapiens) was 72 nM; in experiment [2], 13 nM.

As to `CC(=O)Nc1cn2nc(-c3cc(C(=O)NCc4cc(C(=O)N5CCCC5(C)C)ccc4F)c(C)cc3F)ccc2n1` [Example 416, N-{[5-(2,2-dimethylpyrrolidine-1-carbonyl)-2-fluorophenyl]methyl}-5-{2-acetamidoimidazo [1,2-b]pyridazin-6-yl}-4-fluoro-2-methylbenzamide], the concentration for half-maximal inhibition (IC50) in experiment [1] (Homo sapiens) amounted to 72 nM; in experiment [2], 13 nM.

For `[2H]C([2H])(Oc1c(F)cc(F)cc1CNC(=O)c1cc(-c2ccc3nc(NC(C)=O)cn3n2)cnc1Cl)C1CC1` [Example 266, 2-chloro-N-({2-[cyclopropyl(deutero)methoxy]-3,5-difluorophenyl}methyl)-5-{2-acetamidoimidazo[1,2-b]pyridazin-6-yl}pyridine-3-carboxamide, TFA], the half-maximal inhibitory concentration (IC50) in experiment [1] (Homo sapiens) was found to be 18 nM; in experiment [2], 3 nM.

As for `COc1ccc(-c2ccc3nc(NC(C)=O)cn3n2)c(F)c1C(=O)NCc1cc(F)ccc1C(=O)N1CCC(F)(F)C1` [Example 376], the IC50 in experiment [1] (Homo sapiens) and in experiment [2] was 9 nM throughout.

With `COc1ncc(-c2ccc3nc(NC(C)=O)cn3n2)cc1C(=O)NCc1cc(OCC2CC2)ccc1F` [Example 149, N-{[5-(cyclopropylmethoxy)-2-fluorophenyl]methyl}-5-{2-acetamidoimidazo[1,2-b]pyridazin-6-yl}-2-methoxypyridine-3-carboxamide], the IC50 in experiment [1] (Homo sapiens) came to 74 nM; in experiment [2], 16 nM.

On to `COc1ncc(-c2ccc3nc(NC(C)=O)cn3n2)cc1C(=O)NCc1cc(OC(F)(F)F)ccc1F` [Example 154, 5-{2-acetamidoimidazo[1,2-b]pyridazin-6-yl}-N-{[2-fluoro-5-(trifluoromethoxy)phenyl]methyl}-2-methoxypyridine-3-carboxamide], for which the figures for the concentration for half-maximal inhibition (IC50) in experiment [1] (Homo sapiens) and in experiment [2] were 15 nM and 13 nM, respectively.

As to `Cc1ncc(-c2ccc3nc(NC(=O)CN)cn3n2)cc1C(=O)N[C@H](C)c1cc(OC(F)(F)F)ccc1F` [Example 341, 5-[2-(2-aminoacetamido)-imidazo[1,2-b]pyridazin-6-yl]-N-[(1R)-1-[2-fluoro-5-(trifluoromethoxy)-phenyl]ethyl]-2-methylpyridine-3-carboxamide], the IC50 came out at 492 nM in experiment [1] (Homo sapiens) and 91 nM in experiment [2].

With `COc1ncc(-c2ccc3nc(NC(C)=O)cn3n2)cc1C(=O)NCc1cc(C(F)(F)F)ccc1Cl` [Example 147, N-{[2-chloro-5-(trifluoromethyl)phenyl]methyl}-5-{2-acetamidoimidazo[1,2-b]pyridazin-6-yl}-2-methoxypyridine-3-carboxamide], the results for the concentration for half-maximal inhibition (IC50) in experiment [1] (Homo sapiens) and in experiment [2] were 37 nM and 95 nM, respectively.

Turning to `COc1ncc(-c2ccc3nc(NC(C)=O)cn3n2)cc1C(=O)NCc1cc(F)cc(F)c1O[C@H]1CCOC1` [Example 98, N-({3,5-difluoro-2-[(3S)-oxolan-3-yloxy]phenyl}methyl)-5-{2-acetamidoimidazo[1,2-b]pyridazin-6-yl}-2-methoxypyridine-3-carboxamide], the IC50 amounted to 39 nM in experiment [1] (Homo sapiens) and 2 nM in experiment [2].

Values taken from US11440913B2, “Aminoimidazopyridazines as kinase inhibitors” (BRISTOL-MYERS SQUIBB COMPANY, priority 2017, dated 2022).
